Assay results: article PMC7381729, “A new class of PentixaFor- and PentixaTher-based theranostic agents with enhanced CXCR4-targeting efficiency” (Theranostics, 2020)
Where two headings read alike, the source gives them in different places. Where a SMILES comes first, the peptide text is derived from it. Side-chain parts run from the residue outwards. [ ]: non-standard residue; d: D form. The star is where a group is joined. DOTA = O=C(O)CN1CCN(CC(=O)O)CCN(CC(=O)*)CCN(CC(=O)O)CC1; dTyr(3-I) = N[C@H](Cc1ccc(O)c(I)c1)C(=O)O; 2Nal = N[C@@H](Cc1ccc2ccccc2c1)C(=O)O; dNMeOrn = CN[C@H](CCCN)C(=O)O; 4Abz = Nc1ccc(C(=O)O)cc1

Columns and labels:
[1] = Lipophilicity, modified shake-flask method; format: physicochemical; conditions: O/PBS, radiolabeled compound, means ± SD (n=6)
Procedure: The lipophilicity (log PO/PBS) of the ^68Ga- and ^177Lu-labeled compounds in this study was determined via a modified shake-flask method.

[2] = test system: Daudi (human B-cell lymphoma) xenograft bearing CB-17 SCID mice; test: Biodistribution in Daudi xenograft bearing mice; format: in vivo, mouse; conditions: 1h p.i., tracer only, i.v.; γ-counter; means ± SD, n=4-5 (68Ga: n=4)
Procedure: (§1) The biodistribution of selected compounds was investigated in Daudi (human B-cell lymphoma) xenograft bearing female CB-17 SCID mice (6-8 weeks, Charles River, Sulzfeld, Germany), [29]. All animal experiments were performed in accordance with current animal welfare regulations in Germany (approval #55.2-1-54-2532-71-13).
(§2) Animals (n=4-5 per group) were injected intravenously with 5-10 MBq (0.08-0.11 nmol peptide per mouse) of the respective ^68Ga- and^ 177Lu-labeled CXCR4 ligands in PBS (100 µL) into the tail vein under isoflurane anesthesia. CXCR4-specificity of binding was determined by coinjection of 50 µg AMD3100 per mouse. The animals were sacrificed 1, 6 and 48h post injection (p.i.), and the organs of interest were dissected. The radioactivity was measured in weighted tissue samples using a γ-counter. Data are expressed in % ID/g tissue (mean ± SD).

[3] = Small animal PET imaging in Daudi xenograft bearing mice; format: in vivo; conditions: CB17 SCID, mouse, iv, total radioactivity, 90 min p.i., dynamic PET, ROI analysis, n=1 per compound
Procedure: Small aminal PET imaging studies were performed using a Siemens Inveon PET scanner. Animals were anesthetized with isoflurane and injected via the tail vein with 10 to 15 MBq (0.1 nmol) of the respective tracer. Dynamic imaging (n=1 per compound) was performed after on-bed injection for 1.5 h, and static images (n=1 per compound) were acquired at 1 h p.i. with an acquisition time of 15 min. Data analysis was performed using the Inveon Research Workplace software. Images were reconstructed using a 3D ordered-subsets expectation maximum (OSEM3D) algorithm without scanner and attenuation correction. Time-activity curves (Figure 4) were obtained by generating isocontour regions of interest (ROI) for the tumor and the heart content (as a surrogate for blood activity), as well as by defining two spherical ROIs (each 23.4 mm^3) in the thigh area (muscle) and areas of homogenous tracer uptake in the liver, followed by plotting of average activity ± SD per volume in these ROIs over time.  Figure 4 Results from small animal PET imaging using [^68Ga]PentixaFor (top row), [^68Ga]DOTA-r-a-ABA-CPCR4 (middle row) and [^68Ga]DOTA-r-a-ABA-iodoCPCR4 (bottom row) in Daudi xenograft bearing CB17 SCID mice. Images on the left (MIP) were obtained by static imaging (1h p.i., n=1), the time activity curves (TAC) on the right were acquired by dynamic PET imaging (0-90 min p.i., n=1).

[4] = Biodistribution in Daudi xenograft bearing mice; format: in vivo, mouse; conditions: female, CB-17 SCID, mouse, iv, total radioactivity, 1h p.i., tracer only, i.v., γ-counter, means ± SD, n=4-5 (68Ga: n=4)
Procedure: as §1, §2

Compound: CN1C(=O)[C@@H](Cc2ccc(O)c(I)c2)NC(=O)CNC(=O)[C@H](Cc2ccc3ccccc3c2)NC(=O)[C@H](CCCNC(=N)N)NC(=O)[C@H]1CCCNC(=O)c1ccc(NC(=O)CNC(=O)[C@@H](CCCNC(=N)N)NC(=O)CN2CCN(CC(=O)O)CCN(CC(=O)O)CCN(CC(=O)O)CC2)cc1 [[^177Lu]DOTA-r-G-ABA-iodoCPCR4] [metal not drawn] (cyclo([2Nal]G[dTyr(3-I)][dNMeOrn]([4Abz-Gly-dR-DOTA])R))
- log PO/PBS [1]: -2.7 ± 0.05

Compound: C[C@@H](NC(=O)[C@@H](CCCNC(=N)N)NC(=O)CN1CCN(CC(=O)O)CCN(CC(=O)O)CCN(CC(=O)O)CC1)C(=O)Nc1ccc(C(=O)NCCC[C@@H]2C(=O)N[C@@H](CCCNC(=N)N)C(=O)N[C@@H](Cc3ccc4ccccc4c3)C(=O)NCC(=O)N[C@H](Cc3ccc(O)c(I)c3)C(=O)N2C)cc1 [[^68Ga]DOTA-r-a-ABA-iodoCPCR4] [metal not drawn] (cyclo([2Nal]G[dTyr(3-I)][dNMeOrn]([4Abz-dA-dR-DOTA])R))
- log PO/PBS [1]: -3.3 ± 0.02
- Biodistribution adrenals [2]: 1.51 ± 0.18 %iD/g
- Biodistribution liver [2]: 5.66 ± 0.40 %iD/g
- Biodistribution lung [2]: 2.91 ± 0.28 %iD/g
- Biodistribution spleen [2]: 3.02 ± 0.46 %iD/g
- Biodistribution stomach [2]: 0.93 ± 0.15 %iD/g
- Biodistribution tumor (Daudi xenograft) [2]: 8.32 ± 1.30 %iD/g

Compound: C[C@@H](NC(=O)[C@@H](CCCNC(=N)N)NC(=O)CN1CCN(CC(=O)O)CCN(CC(=O)O)CCN(CC(=O)O)CC1)C(=O)Nc1ccc(C(=O)NCCC[C@@H]2C(=O)N[C@@H](CCCNC(=N)N)C(=O)N[C@@H](Cc3ccc4ccccc4c3)C(=O)NCC(=O)N[C@H](Cc3ccc(O)c(I)c3)C(=O)N2C)cc1 [[^68Ga]DOTA-r-a-ABA-iodoCPCR4, metal not drawn] (cyclo([2Nal]G[dTyr(3-I)][dNMeOrn]([4Abz-dA-dR-DOTA])R))
- tissue uptake per volume at 1.5 h ([3]; kidney, read-out: Kidney uptake in PET): 4.3 ± 0.4 %ID/mL
- tissue uptake per volume at 1.5 h ([3]; liver, average ± SD per volume in ROI, read-out: Liver uptake in PET): 6.1 ± 0.1 %ID/mL
- tissue uptake per volume at 1.5 h ([3]; tumor (Daudi xenograft), Daudi xenograft, read-out: Tumor accumulation in PET): 14.2 ± 1.5 %ID/mL
- tissue uptake at 1 h ([4]; blood, read-out: Biodistribution blood): 3.71 ± 0.28 %ID/g
- tissue uptake at 1 h ([4]; colon, read-out: Biodistribution colon): 0.65 ± 0.29 %ID/g
- tissue uptake at 1 h ([4]; femur, read-out: Biodistribution femur): 1.41 ± 0.16 %ID/g
- tissue uptake at 1 h ([4]; heart, read-out: Biodistribution heart): 1.56 ± 0.2 %ID/g
- tissue uptake at 1 h ([4]; kidney, read-out: Biodistribution kidney): 6.25 ± 0.52 %ID/g
- tissue uptake at 1 h ([4]; muscle, read-out: Biodistribution muscle): 0.49 ± 0.08 %ID/g
- tissue uptake at 1 h ([4]; pancreas, read-out: Biodistribution pancreas): 0.88 ± 0.06 %ID/g
- tissue uptake at 1 h ([4]; small intestine, read-out: Biodistribution small intestine): 1.18 ± 0.03 %ID/g

Compound: CN1C(=O)[C@@H](Cc2ccc(O)c(I)c2)NC(=O)CNC(=O)[C@H](Cc2ccc3ccccc3c2)NC(=O)[C@H](CCCNC(=N)N)NC(=O)[C@H]1CCCNC(=O)c1ccc(NC(=O)CNC(=O)[C@@H](CCCNC(=N)N)NC(=O)CN2CCN(CC(=O)O)CCN(CC(=O)O)CCN(CC(=O)O)CC2)cc1 [[^68Ga]DOTA-r-G-ABA-iodoCPCR4] [metal not drawn] (cyclo([2Nal]G[dTyr(3-I)][dNMeOrn]([4Abz-Gly-dR-DOTA])R))
- log PO/PBS [1]: -3.0 ± 0.02

Compound: C[C@@H](NC(=O)[C@@H](CCCNC(=N)N)NC(=O)CN1CCN(CC(=O)O)CCN(CC(=O)O)CCN(CC(=O)O)CC1)C(=O)Nc1ccc(C(=O)NCCC[C@@H]2C(=O)N[C@@H](CCCNC(=N)N)C(=O)N[C@@H](Cc3ccc4ccccc4c3)C(=O)NCC(=O)N[C@H](Cc3ccc(O)cc3)C(=O)N2C)cc1 [[^68Ga]DOTA-r-a-ABA-CPCR4] [metal not drawn] (cyclo([2Nal]G[dY][dNMeOrn]([4Abz-dA-dR-DOTA])R))
- log PO/PBS [1]: -3.6 ± 0.06
- Biodistribution blood [2]: 3.95 ± 0.89 %iD/g
- Biodistribution liver [2]: 5.63 ± 0.51 %iD/g
